Each structure is given as a SMILES string.

Common to all, as to assay: two-electrode voltage clamp, Xenopus oocytes, heat-normalized AITC-evoked current
On the technique in general: In two-electrode clamp one electrode senses voltage and the other passes current.

One assay concerns T1, SfTRPA1-CL.
T1 construct: gene TrpA1; full CDS of splice isoform CL (artificial synthesis, Genscript) in pOX(+), cRNA-injected Xenopus laevis oocytes
It counts as cell-based, Scaptomyza flava. To be noted: agonist (electrophile); ND96 pH 7.4, -60 mV; after prior heat stimulus (>40 °C); read-out: TRPA1-CL / SfTRPA1-CL. The source says: two-electrode voltage clamp, Xenopus oocytes, heat-normalized AITC-evoked current on SfTRPA1-CL

The test system of another assay is T2, SpTRPA1-DL.
T2 construct: gene TrpA1; full CDS of splice isoform DL (cDNA from adult tarsi) in pOX(+), cRNA-injected Xenopus laevis oocytes
In kind it is cell-based, Scaptomyza pallida. The note with it: agonist (electrophile); ND96 pH 7.4, -60 mV; after prior heat stimulus (>40 °C); read-out: TRPA1-DL / SpTRPA1-DL. The source says: two-electrode voltage clamp, Xenopus oocytes, heat-normalized AITC-evoked current on SpTRPA1-DL

In another assay the target is T3, DmTRPA1-D (Drosophila melanogaster, UniProt H0USS9).
T3 construct: gene TrpA1; full CDS of splice isoform D (cDNA gift from Marco Gallio lab) in pOX(+), cRNA-injected Xenopus laevis oocytes
T3 sequence (H0USS9 1-1231): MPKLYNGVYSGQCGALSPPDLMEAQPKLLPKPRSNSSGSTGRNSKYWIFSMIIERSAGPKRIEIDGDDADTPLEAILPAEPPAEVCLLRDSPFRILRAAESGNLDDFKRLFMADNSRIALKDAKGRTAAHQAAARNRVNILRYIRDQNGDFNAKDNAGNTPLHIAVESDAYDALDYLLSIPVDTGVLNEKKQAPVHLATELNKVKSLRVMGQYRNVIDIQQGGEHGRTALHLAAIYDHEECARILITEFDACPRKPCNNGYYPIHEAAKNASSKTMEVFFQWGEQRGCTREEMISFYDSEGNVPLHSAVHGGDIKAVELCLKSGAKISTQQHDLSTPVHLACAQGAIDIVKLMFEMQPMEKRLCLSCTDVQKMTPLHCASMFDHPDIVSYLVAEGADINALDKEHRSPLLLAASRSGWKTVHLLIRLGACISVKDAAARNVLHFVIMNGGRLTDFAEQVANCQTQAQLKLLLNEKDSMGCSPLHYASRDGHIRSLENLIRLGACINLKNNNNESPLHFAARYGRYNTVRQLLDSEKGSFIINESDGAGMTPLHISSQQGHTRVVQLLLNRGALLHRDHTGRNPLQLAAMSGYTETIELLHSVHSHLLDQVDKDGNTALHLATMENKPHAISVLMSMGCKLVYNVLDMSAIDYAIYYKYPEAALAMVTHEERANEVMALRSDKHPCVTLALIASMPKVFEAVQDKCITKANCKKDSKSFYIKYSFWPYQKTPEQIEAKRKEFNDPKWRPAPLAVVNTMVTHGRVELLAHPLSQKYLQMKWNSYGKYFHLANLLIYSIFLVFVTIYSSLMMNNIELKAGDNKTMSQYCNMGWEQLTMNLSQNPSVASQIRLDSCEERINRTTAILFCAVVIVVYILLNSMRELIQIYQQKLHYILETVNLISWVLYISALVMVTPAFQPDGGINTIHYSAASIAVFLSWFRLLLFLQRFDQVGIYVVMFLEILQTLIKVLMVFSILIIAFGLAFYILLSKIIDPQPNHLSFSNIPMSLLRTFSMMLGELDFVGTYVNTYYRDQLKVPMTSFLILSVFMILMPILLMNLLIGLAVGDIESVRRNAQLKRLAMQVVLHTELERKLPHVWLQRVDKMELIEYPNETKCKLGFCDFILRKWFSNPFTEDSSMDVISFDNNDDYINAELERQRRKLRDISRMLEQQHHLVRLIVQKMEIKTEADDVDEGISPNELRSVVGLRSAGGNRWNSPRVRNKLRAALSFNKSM
In kind it is cell-based. To be noted: read-out: TRPA1-DL / DmTRPA1-D. The source says:
two-electrode voltage clamp, Xenopus oocytes, heat-normalized AITC-evoked current on DmTRPA1-D

In another assay the test system is T4, SpTRPA1-CL.
T4 construct: gene TrpA1; full CDS of splice isoform CL (cDNA from adult labella) in pOX(+), cRNA-injected Xenopus laevis oocytes
In kind it is cell-based, Scaptomyza pallida. To be noted: agonist (electrophile); ND96 pH 7.4, -60 mV; after prior heat stimulus (>40 °C); read-out: TRPA1-CL / SpTRPA1-CL. The source says:
two-electrode voltage clamp, Xenopus oocytes, heat-normalized AITC-evoked current on SpTRPA1-CL

The next assay relates to T5, SfTRPA1-DL.
T5 construct: gene TrpA1; full CDS of splice isoform DL (artificial synthesis, Genscript) in pOX(+), cRNA-injected Xenopus laevis oocytes
It counts as cell-based, Scaptomyza flava. The note with it: agonist (electrophile); ND96 pH 7.4, -60 mV; after prior heat stimulus (>40 °C); read-out: TRPA1-DL / SfTRPA1-DL. The source says: two-electrode voltage clamp, Xenopus oocytes, heat-normalized AITC-evoked current on SfTRPA1-DL

In another assay the target is T6, DmTRPA1-C (Drosophila melanogaster, UniProt G8IQ59).
T6 construct: gene TrpA1; full CDS of splice isoform C (cDNA from third-instar larva whole body) in pOX(+), cRNA-injected Xenopus laevis oocytes
T6 sequence (G8IQ59 1-1232): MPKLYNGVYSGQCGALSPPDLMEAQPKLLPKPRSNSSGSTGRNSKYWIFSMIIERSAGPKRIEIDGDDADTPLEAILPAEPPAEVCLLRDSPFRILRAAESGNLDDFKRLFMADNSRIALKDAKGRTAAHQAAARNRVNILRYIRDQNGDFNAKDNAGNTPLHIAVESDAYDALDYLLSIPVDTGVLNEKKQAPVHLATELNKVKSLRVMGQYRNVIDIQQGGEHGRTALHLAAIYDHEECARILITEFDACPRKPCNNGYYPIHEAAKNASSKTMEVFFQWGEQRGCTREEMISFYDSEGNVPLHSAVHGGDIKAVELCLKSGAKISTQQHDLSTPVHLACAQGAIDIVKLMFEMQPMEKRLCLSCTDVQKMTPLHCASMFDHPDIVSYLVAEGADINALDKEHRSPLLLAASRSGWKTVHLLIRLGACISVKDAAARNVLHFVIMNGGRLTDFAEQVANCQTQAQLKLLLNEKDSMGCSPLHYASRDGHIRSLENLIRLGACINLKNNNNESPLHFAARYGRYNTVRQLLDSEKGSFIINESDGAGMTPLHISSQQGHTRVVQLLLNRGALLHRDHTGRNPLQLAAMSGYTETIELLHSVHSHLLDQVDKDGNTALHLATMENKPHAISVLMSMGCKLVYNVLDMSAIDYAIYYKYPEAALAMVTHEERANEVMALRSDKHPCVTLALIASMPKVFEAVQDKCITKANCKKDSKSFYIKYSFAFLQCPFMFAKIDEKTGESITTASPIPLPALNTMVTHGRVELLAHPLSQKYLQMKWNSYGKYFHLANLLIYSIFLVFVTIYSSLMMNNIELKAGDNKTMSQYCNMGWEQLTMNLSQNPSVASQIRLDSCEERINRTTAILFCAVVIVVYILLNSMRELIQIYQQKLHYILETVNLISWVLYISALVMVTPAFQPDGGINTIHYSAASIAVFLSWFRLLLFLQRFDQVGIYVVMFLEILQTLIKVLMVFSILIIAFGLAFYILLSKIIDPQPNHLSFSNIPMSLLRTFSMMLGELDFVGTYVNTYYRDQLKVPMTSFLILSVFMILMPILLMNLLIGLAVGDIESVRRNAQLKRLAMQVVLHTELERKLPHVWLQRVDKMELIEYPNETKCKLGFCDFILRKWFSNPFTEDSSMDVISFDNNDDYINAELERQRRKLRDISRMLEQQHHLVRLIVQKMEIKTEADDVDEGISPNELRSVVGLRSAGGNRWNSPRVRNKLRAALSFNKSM
In kind it is cell-based. The note with it: read-out: TRPA1-CL / DmTRPA1-C. The source says: two-electrode voltage clamp, Xenopus oocytes, heat-normalized AITC-evoked current on DmTRPA1-C

In the case of `C=CCN=C=S` [allyl isothiocyanate], the EC50 with SfTRPA1-CL is 65 ± 55 µM; in the assay with SpTRPA1-DL, 103 ± 15 µM; at DmTRPA1-D, 341 ± 92 µM; in the assay on SpTRPA1-CL, 29 ± 15 µM; in the assay on SfTRPA1-DL, 316 ± 31 µM; on DmTRPA1-C, 8.6 ± 4.3 µM.

For the origin of these results see publication doi:10.1101/2025.05.09.653172, “Alternative Splicing in TRPA1 Drives Sensory Adaptation to Electrophiles in Drosophilids” (bioRxiv, 2025).
